Laboratory results published in patent US20240252668A1, “ANTIBODY DRUG CONJUGATES AND METHODS FOR MAKING THEREOF” (Novartis AG, priority 2021, published 2024).
Like-named read-outs stand apart in the source and are kept apart here. Starred links: 1 amine or outer side, 2 acyl side, 3 side chain; linkers in the order of their positions; H or OH if unused. Positions of bridges follow the written chain, without caps; N, C: chain ends. Non-standard residues stand in square brackets, D forms with d. Residues, ends and D or L forms follow the SMILES beside them. *: point of attachment. Leu(3R-O(AcLeu(3R-OH))) = CC(=O)N[C@H](C(=O)O[C@H](C(C)C)[C@H](N)C(=O)O)[C@H](O)C(C)C; Leu(3R-OH,Nα-propionyl) = CCC(=O)N[C@H](C(=O)*)[C@H](O)C(C)C; X1 = CC(C)[C@@H](O[*:3])[C@H](N[*:1])C(=O)[*:2]; NMeT = CN[C@H](C(=O)O)[C@@H](C)O; dPhLac = O=C(O)[C@H](O)Cc1ccccc1; X2 = CC(C)C=C(N[*:1])C(=O)[*:2]; NMeA = CN[C@@H](C)C(=O)O; NMeDha = C=C(NC)C(=O)O

Columns and labels:
[1] = test system: MP41 uveal melanoma cell line (heterozygous GNA11 Q209L); experiment: Cell proliferation assay (resazurin cell viability), MP41 cell line; type: cell-based
Text: (§1) Cell Proliferation Assays with Chromodepsins (compounds (A1) and 2-15): Cell line descriptions: 92.1—uveal melanoma cell line, derived from primary tumor, harboring heterozygous GNAQ Q209L mutation. Purchased from Sigma Aldrich. MP41 (CRL-3297) -uveal melanoma cell line, derived from primary tumor, harboring heterozygous GNA11 Q209L mutation. Purchased from ATCC. A375—skin melanoma cell line, harboring homozygous BRAF V600E mutation. Origin: Cancer Cell Line Encyclopedia (CCLE). SK-MEL-30—skin melanoma cell line, harboring heterozygous NRAS Q61K mutation. Origin: CCLE.
(§2) Cells were cultured in 96-well plates in a total volume of 100 μL at 37° C., 5% CO2 and 95% relative humidity. All cell lines were cultured in RPMI Medium (RPMI 1640 w/o L-glutamine, Bioconcept ref. 1-41F01-I) except A375, DMEM medium (DMEM high glucose (4.5 g/L), Bioconcept, ref. 1-26F01-I), and supplemented with 10% FCS (Bioconcept, ref. 2-01F30-I). Two to three thousand cells were seeded in 96-well plates per well the night before they were treated with compounds (concentration range: from 260 nM to 0.036 nM with ⅓ dilution steps; for 7 the concentration range was increased from 10000 nM to 1.52 nM with ⅓ dilution steps). Cell viability was measured by addition of 10 ul of resazurin per well after 96 hours of treatment. Results were analyzed and plotted using GraphPad Prism 9.0.1.

[2] = test system: SK-MEL-30 skin melanoma cell line (heterozygous NRAS Q61K); experiment: Cell proliferation assay (resazurin cell viability), SK-MEL-30 cell line; type: cell-based
Text: as §1, §2

[3] = Plasma incubation of compound (A1), human plasma, LC-MS/MS quantification; type: in vitro ADME; settings: formed in incubation of (A1) in human plasma, 37° C.
Method: Plasma incubations and sample preparation: Compound (A1) was spiked at 5.00 μg/mL in PBS and pooled mixed gender mouse (CD-1), cynomolgus monkey and human plasma. Samples were incubated on a Thermomixer (Eppendorf) at 37° C. while shaking at 650 rpm. Aliquots of 50 μL (n=3) were drawn from each incubation tube following 0, 0.5, 1, 2, 4, 8 and 24 h of incubation. 50 μL of sample was quenched with 200 μL of acetonitrile, containing both generic internal standards, glybenclamide and warfarin, at 62.5 ng/mL. Samples were briefly vortexed and centrifuged for 20 min at 4000 rpm and 4° C. 200 μL of the supernatant was transferred into a clean 800 μL 96-well sample collection plate.
Quantification by LC-MS/MS: LC-MS/MS analysis was conducted with a Shimadzu Nexera UPLC coupled to AB Sciex QTRAP 6500 using the SRM acquisition mode (3 μL injected). Samples were analyzed using a ACE 3° C.18-PFP (3 μM, 2.1×50 mm column) at a column temperature of 65° C. The starting conditions were 97% H20 containing 0.1% formic acid and 3% CH3CN containing 0.1% formic acid. Quantification of compound (A1) and 5 was performed by MS-MRM (electrospray in positive mode, ion spray voltage: 5000 V, source temperature: 500° C., curtain gas: 25 psig, nebulizer gas: 60 psig, turbo ion spray gas: 40 psig, mass range: low, resolution Q1/Q3: unit, collision gas: medium, dwell time: 12 msec). Separate calibration curves were established with calibration standards of compounds (A1) and 5 at concentrations of 10.0, 5.00, 2.50, 1.00, 0.500, 0.100, 0.050 and 0.010 μg/mL respectively. Peak integration and quantification was conducted with the AB Sciex Analyst software (v.1.7) using the Analyst Classic algorithm. […]

[4] = test system: 92.1 uveal melanoma cell line (heterozygous GNAQ Q209L); experiment: Cell proliferation assay (resazurin cell viability), 92.1 cell line; type: cell-based
Text: as §1, §2

MDCK-LE monolayers = experiment: Cell-based transwell assay with MDCK-low efflux monolayers (passive permeability); type: in vitro ADME; settings: MDCK-LE monolayers
Method: Cell-based transwell assays with MDCK-low efflux monolayers: Compounds (A1) and 2-15 were tested in MDCK cell sub-clones with low effluxt ransporter activity (MDCK-LE) in order to determine their passive permeability. The incubations were performed at a contract research organization as described previously.

[5] = EPSA determination by supercritical fluid chromatography; type: physicochemical; settings: modified EPSA method, SFC
Method: […] by supercritical fluid chromatography: Compounds (A1) and 2-15 were tested by supercritical fluid chromatography (SFC) to determine their ESAPSA values. Samples were analyzed using a Chirex 3014 column ([…], 3×100 mm column, 100 Å pore size; Phenomenex. The starting conditions were 5% methanol containing 20 mM ammonium formate and 95% scCO2. The gradient was increased linearly to 60% methanol containing 20 mM ammonium formate in 4.5 min.

[6] = test system: A375 skin melanoma cell line (homozygous BRAF V600E); experiment: Cell proliferation assay (resazurin cell viability), A375 cell line; type: cell-based
Text: as §1, §2

[7] = MP41 (GNA11 Q209L), 96 hours of treatment, read-out: GI50 by cell line, MP41
[8] = MP41 cell line, average of Rep. 1 and 2, read-out: GI50 MP41 Average
[9] = MP41 cell line, replicate 1, read-out: GI50 MP41 Rep. 1
[10] = MP41 cell line, replicate 2, read-out: GI50 MP41 Rep. 2
[11] = SK-MEL-30 (GNAQ/11 wild type), 96 hours of treatment, read-out: GI50 by cell line, SK-MEL-30
[12] = SK-MEL-30 cell line, average of Rep. 1 and 2, read-out: GI50 SK-MEL-30 Average
[13] = SK-MEL-30 cell line, replicate 1, read-out: GI50 SK-MEL-30 Rep. 1
[14] = SK-MEL-30 cell line, replicate 2, read-out: GI50 SK-MEL-30 Rep. 2
[15] = 92.1 (GNAQ Q209L), 96 hours of treatment, read-out: GI50 by cell line, 92.1
[16] = 92.1 cell line, average of Rep. 1 and 2, read-out: GI50 92.1 Average
[17] = 92.1 cell line, replicate 1, read-out: GI50 92.1 Rep. 1
[18] = 92.1 cell line, replicate 2, read-out: GI50 92.1 Rep. 2
[19] = A375 (GNAQ/11 wild type), 96 hours of treatment, read-out: GI50 by cell line, A375
[20] = A375 cell line, average of Rep. 1 and 2, read-out: GI50 A375 Average
[21] = A375 cell line, replicate 1, read-out: GI50 A375 Rep. 1
[22] = A375 cell line, replicate 2, read-out: GI50 A375 Rep. 2

## C=C(C(=O)N[C@@H](C)C(=O)N(C)[C@@H](C)C(=O)N[C@H](C(=O)N(C)[C@H](C(=O)O)[C@@H](C)OC)[C@H](OC(=O)[C@@H](NC(=O)CC)[C@H](O)C(C)C)C(C)C)N(C)C(=O)[C@@H](Cc1ccccc1)OC(=O)C(=CC(C)C)NC(C)=O [Compound 5] (Ac-[X2][dPhLac][NMeDha]A[NMeA][X1](Leu(3R-OH,Nα-propionyl))[NMeT](Me)-OH)
[1]; [7]
  GI50: > 260 nM
[1]; [8]
  GI50: > 260 nM
[1]; [9]
  GI50: > 260 nM
[1]; [10]
  GI50: > 260 nM
[2]; [11]
  GI50: > 260 nM
[2]; [12]
  GI50: > 260 nM
[2]; [13]
  GI50: > 260 nM
[2]; [14]
  GI50: > 260 nM
[3]; 0 h
  Concentration of 5, Aliquot 1: BLQ
  Concentration of 5, Aliquot 2: BLQ
  Concentration of 5, Aliquot 3: BLQ
[3]; 0.5 h
  Concentration of 5, Aliquot 1: 61.3 ng/mL
  Concentration of 5, Aliquot 2: 67.3 ng/mL
  Concentration of 5, Aliquot 3: 67.1 ng/mL
  Mean concentration of 5: 65.2 ng/mL
[3]; 1 h
  Concentration of 5, Aliquot 1: 117 ng/mL
  Concentration of 5, Aliquot 2: 123 ng/mL
  Concentration of 5, Aliquot 3: 142 ng/mL
  Mean concentration of 5: 127 ng/mL
[3]; 2 h
  Concentration of 5, Aliquot 1: 255 ng/mL
  Concentration of 5, Aliquot 2: 289 ng/mL
  Concentration of 5, Aliquot 3: 317 ng/mL
  Mean concentration of 5: 287 ng/mL
[3]; 4 h
  Concentration of 5, Aliquot 1: 615 ng/mL
  Concentration of 5, Aliquot 2: 647 ng/mL
  Concentration of 5, Aliquot 3: 677 ng/mL
  Mean concentration of 5: 646 ng/mL
[3]; 8 h
  Concentration of 5, Aliquot 1: 1370 ng/mL
  Concentration of 5, Aliquot 2: 1480 ng/mL
  Concentration of 5, Aliquot 3: 1570 ng/mL
  Mean concentration of 5: 1470 ng/mL
[3]; 24 h
  Concentration of 5, Aliquot 1: 3140 ng/mL
  Concentration of 5, Aliquot 2: 2820 ng/mL
  Concentration of 5, Aliquot 3: 3140 ng/mL
  Mean concentration of 5: 3030 ng/mL
[4]; [15]
  GI50: > 260 nM
[4]; [16]
  GI50: > 260 nM
[4]; [17]
  GI50: > 260 nM
[4]; [18]
  GI50: > 260 nM
MDCK-LE monolayers
  % Fraction absorbed: 4.2%
  % Recovery: 86%
  Papp A − B: 0.27 ×10⁻⁶ cm/s
[5]
  EPSA: 229 A^2
[6]; [19]
  GI50: > 260 nM
[6]; [20]
  GI50: > 260 nM
[6]; [21]
  GI50: > 260 nM
[6]; [22]
  GI50: > 260 nM

## C=C1C(=O)N[C@@H](C)C(=O)N(C)[C@@H](C)C(=O)N[C@@H]([C@H](OC(=O)[C@@H](NC(C)=O)[C@H](O)C(C)C)C(C)C)C(=O)N(C)[C@@H]([C@@H](C)OC)C(=O)O[C@H](C)[C@H](NC(C)=O)C(=O)O[C@H](Cc2ccccc2)C(=O)N1C [Compound 13] (Ac-T[dPhLac][NMeDha]A[NMeA][Leu(3R-O(AcLeu(3R-OH)))][NMeT](Me); ester 1-C)
[1]; [7]
  GI50: 6 nM
[1]; [8]
  GI50: 6 nM
[1]; [9]
  GI50: 3.6 nM
[1]; [10]
  GI50: 8.31 nM
[2]; [11]
  GI50: > 260 nM
[2]; [12]
  GI50: > 260 nM
[2]; [13]
  GI50: > 260 nM
[2]; [14]
  GI50: > 260 nM
[4]; [15]
  GI50: 15.7 nM
[4]; [16]
  GI50: 15.7 nM
[4]; [17]
  GI50: 10.1 nM
[4]; [18]
  GI50: 21.4 nM
MDCK-LE monolayers
  % Fraction absorbed: 46.5%
  % Recovery: 85%
  Papp A − B: 2.69 ×10⁻⁶ cm/s
[5]
  EPSA: 95 A^2
[6]; [19]
  GI50: > 260 nM
[6]; [20]
  GI50: > 260 nM
[6]; [21]
  GI50: > 260 nM
[6]; [22]
  GI50: > 260 nM
